Source: patent publication US20090170759A1, “NEUROPROTECTIVE PEPTIDES” (priority 2007, published 2009)
“Also recorded” adds a separate entry of the source.

Columns and labels:
[1] = tested on: rat cerebral cortical cultures; test: Neurite outgrowth assay (MAP2-FITC immunofluorescence), cortical cultures; type: cell-based
Description: (§1) Dissociated hippocampal and cortical cell cultures were established from embryonic day 18 rat fetuses as previously described (Mattson et al., 1994). Briefly, fetuses were removed via cesarean section from pregnant moms (Sprague-Dawley) anesthetized with halothane according to the AVMA Panel on Euthanasia. Pups were decapitated and the brains were removed and placed in HEPES-buffered Hank's Balanced Salt solution (HBSS; Gibco). The hippocampi and cortices were dissected out and pooled according to tissue-type. Tissue was trypsinized for 15 min (1 mg/ml trypsin-HBSS; Worthington), rinsed with fresh HBSS, incubated in trypsin inhibitor (1 mg/ml; Sigma) for 5 min, rinsed again with fresh HBSS and then triturated in 1 ml fresh HBSS with a fire-polished glass pipette. Dissociated cells were seeded at 30,000 cells/well onto poly-D-lysine coated 96-well plates (Collaborative BioScience). Each well contained 100 μl of Eagle's Minimal Essential Media (MEM; Gibco) supplemented with 26 mM NaHCO3 (Sigma), 56 mM glucose (Sigma), 15 mM KCl (Sigma), 1 mM sodium pyruvate (Sigma), 1.1 mM L-glutamine (Sigma), 10% (v/v) heat-inactivated fetal bovine serum (Hyclone), and 0.001% gentamicin sulfate (Sigma) (pH 7.4). Cells were allowed to attach for 24 h in a humidified 37° C. 5% CO2 incubator before experimental treatment. The culture media was aspirated and exchanged with fresh media every three days.
(§2) Twenty-four hours after plating, cultures were treated with vehicle (PBS+0.1% BSA), 100 ng of various growth factors (brain derived neurotrophic factor (BDNF; Promega), glial-derived neurotrophic factor (GDNF; Promega), nerve growth factor (NGF; Boehringer Mannheim), basic fibroblast growth factor (bFGF; Boehringer Mannheim), insulin-like growth factor-1 (IGF-1; Boehringer Mannheim), neurotrophin-3 (NT3; Calbiochem), neurotrophin-4 (NT4; Calbiochem), ciliary neurotrophic factor (CNTF; Calbiochem), epidermal growth factor (EGF; Calbiochem), vascular endothelial growth factor (VEGF; Calbiochem)), or rhEPO (prepared same as above; 10 fM-10 nM)). Each treatment condition was run in quadruplicate or octuplicate. On the third day in culture, the media was aspirated off and replaced with fresh media and test compound. At one week in culture, the cells were fixed with 10% phosphate-buffered formalin for 15 min, then rinsed with DPBS (Sigma) and placed in blocking serum for 30 min (horse serum; 1:50 dilution in DPBS; Vector Labs). Cultures were rinsed again with DPBS and then incubated in primary antibody for 2 hr (microtubule-associated protein-2 (MAP-2) is a selective marker for dendritic processes; anti-mouse monoclonal (Chemicon); 1:1000 dilution of MAP-2 in antibody diluent (Zymed)). Negative control wells were incubated in antibody diluent alone. Background signal was determined by blank wells (cell-free) incubated with or without antibody. Cultures were rinsed again with DPBS and then placed in fluorescein for 1 hr (FITC; anti-mouse IgG; rat adsorbed; 1:50 dilution in DPBS; Vector Labs). Cultures were rinsed a final time with DPBS and then the plates were read on a Cytofluor 4000 fluorescence plate reader. Neurite outgrowth was expressed as percent change from control (vehicle; mean fluorescence±SD).
(§3) Dissociated hippocampal and cortical cell cultures were established from embryonic day 18 rat fetuses as previously described (Mattson et al., 1994). Briefly, fetuses were removed via cesarean section from pregnant moms (Sprague-Dawley) anesthetized with halothane according to the AVMA Panel on Euthanasia. Pups were decapitated and the brains were removed and placed in HEPES-buffered Hank's Balanced Salt solution (HBSS; Gibco). The hippocampi and cortices were dissected out and pooled according to tissue-type. […]

PC-12 cells = test: NGF withdrawal in PC-12 cells; type: cell-based, rat
Method: (§4) PC-112 cells (from a rat Pheochromocytoma) were cultured on poly-D-Lysine coated tissue culture plastic in DMEM containing 10% FBS and 5% Horse serum. To induce the neuronal phenotype in PC-12 cells, serum was removed and the cells were treated with NGF (50 ng/ml). Cells were grown for 7 days in the presence of the NGF then used for experiments.
PC-12 cells were cultured as described above in a 96 well poly-d-lysine coated multi-well plate and treated with rhEPO (1 pm to 10 nm) for 24 hr prior to NGF withdrawal. On the day of the experiment the cells were washed with buffer 3 times to remove NGF and then cultured in fresh media without NGF. Immediately following NGF washout cells were counted (t=0) to determine the number of living cells. Cell viability was based on morphological characteristics including phase brightness, presence of axons, and absence of blebbing. Cell counts were performed at 12 hr, 24 hr, 48 hr and 72 hr and the number of viable cells were scored.

bclXL = test: EPO induced gene expression in PC12 cells, quantitative RT-PCR (bclXL); type: cell-based, rat; conditions: PC-12 cells
Method: as §4, with “PC-12” for “PC-112”
PC-12 cells were cultured as described in Example 1 in a 10 cm poly-D-lysine coated tissue culture dish. Cells were incubated in the presence of 1 U/ml of EPO for 24 hr. Total RNA was then isolated using a Qiagen RNAeasy mini prep kit and used for RT-PCR.
(§5) Real time reverse transcription and PCR were performed in a single reaction using a light cycler and an RNA amplification kit from Roche Molecular Biochemicals. RNA was quantitated and added in equal amounts to reaction mix that includes the dsDNA specific dye SYBR green I. Specific PCR reaction products are quantitated by detecting the amount of fluorescence in the reaction at each PCR cycle. Final analysis was performed using the data analysis software included with the light cycler instrument.

bak = test: EPO induced gene expression in PC12 cells, quantitative RT-PCR (bak); type: cell-based, rat; conditions: PC-12 cells
Method: as §4, with “PC-12” for “PC-112”
PC-12 cells were cultured as described in Example 1 in a 10 cm poly-D-lysine coated tissue culture dish. […] Total RNA was then isolated using a Qiagen RNAeasy mini prep kit and used for RT-PCR.
as §5

rat hippocampal cultures = test: Neurite outgrowth assay (MAP2-FITC immunofluorescence), hippocampal cultures; type: cell-based
Description: as §1, §2, §3

[2] = Plasma determinations by EPO ELISA; type: in vivo, rat; conditions: terminal sample
Description: Plasma Determinations: Blood samples were collected from each rat via the orbital sinus at the time of sacrifice. Plasma was separated out, frozen and analyzed by EPO ELISA for determination of plasma concentration (U/ml).

[3] = 1 nm EPO for 24 hr (FIG. 3 legend)

rhEPO: purified, recombinant human EPO (rhEPO), currently formulated and distributed under the trademarks of EPREX, ERYPO, or PROCRIT
neurite outgrowth response over control, cortical cultures ([1]; Example 3, one week in culture): 15-29%
neurite outgrowth in rat cerebral cortical cultures (in words) ([1]; figure legends): promotes neurite outgrowth
ability to increase neurite outgrowth in cortical cultures compared with known growth factors ([1]; growth factors at 100 ng): greater than or equal to that of known growth factors
neuroprotective effect at 1 nm, growth factor withdrawal (PC-12 cells; 1 nm): no significant effect
peak / optimum concentration for the neuroprotective effect, NGF withdrawal (PC-12 cells; 24 hr pre-treatment before NGF withdrawal): 10 pm
viable cells / cell death after NGF withdrawal (in words) (PC-12 cells; 24 hr pre-treatment, 12 hr, 24 hr, 48 hr and 72 hr after withdrawal, listed as EPO): significant decrease in cell death; also recorded: increased the number of viable cells at each time point
increase in the expression of the anti-apoptotic gene bclXL (bclXL; [3]): 6 fold
increase in the expression of the anti-apoptotic gene bclXL (bclXL; EPO 1 U/ml for 24 hr): 6 fold
decrease in the expression of the pro-apoptotic Bak (bak; [3]): greater than 5 fold
decrease in the expression of the pro-apoptotic gene bak (bak; EPO 1 U/ml for 24 hr): 5 fold
neurite outgrowth response over control, hippocampal cultures (rat hippocampal cultures; Example 3, one week in culture): 12-44%
neurite outgrowth in rat hippocampal cultures (in words) (rat hippocampal cultures; figure legends): promotes neurite outgrowth
neurite outgrowth promoting activity in hippocampus compared with growth factors (rat hippocampal cultures; growth factors at 100 ng): superior to several growth factors including BDNF, NGF and VEGF
plasma concentrations, Study I ([2]; continuous infusion): correlated with the protective effect
plasma concentrations, Study II ([2]; single iv bolus 1000, 2500 or 5000 U/kg): low in each group
